Results: patent US20240174634A1, “Aldehyde Dehydrogenase Inhibitors and Their Therapeutic Use” (priority 2020, published 2024)

The molecules below were run against T1, ALDH1A3 (Homo sapiens, UniProt P47895) (assay: ALDH1A3 cellular assay (ALDEFLUOR) in WM266.4 melanoma cells). Settings: WM266.4 cells; 60 min incubation; percentage of ALDH-positive cells.
T1 sequence (P47895 1-512): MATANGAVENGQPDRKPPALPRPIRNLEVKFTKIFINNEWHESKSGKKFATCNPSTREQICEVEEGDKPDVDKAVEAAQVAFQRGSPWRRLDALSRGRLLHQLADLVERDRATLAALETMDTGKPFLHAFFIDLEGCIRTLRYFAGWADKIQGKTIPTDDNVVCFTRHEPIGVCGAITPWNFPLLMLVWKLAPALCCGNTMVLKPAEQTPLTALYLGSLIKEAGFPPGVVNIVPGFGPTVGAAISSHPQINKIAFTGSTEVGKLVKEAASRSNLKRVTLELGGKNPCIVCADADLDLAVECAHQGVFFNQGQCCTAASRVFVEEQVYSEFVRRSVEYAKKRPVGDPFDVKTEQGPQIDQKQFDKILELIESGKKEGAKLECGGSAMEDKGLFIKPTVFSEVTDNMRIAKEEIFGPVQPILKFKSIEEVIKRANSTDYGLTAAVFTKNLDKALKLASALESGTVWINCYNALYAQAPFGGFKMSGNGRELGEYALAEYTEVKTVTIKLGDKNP
Assay type: cell-based
From the text: Materials: WM266.4 cells were procured from ATCC. (WM266-4 is a metastatic human melanoma cell line.) The ALDEFLUOR™ Assay kit (cat. no. 01700) and Aldefluor buffer (cat. no. 01702) were procured from StemCell Technologies. Dulbecco's Modified Eagle Medium (DMEM), FluoroBrite DMEM, Glutamax and Hoechst 33342 were purchased from ThermoFisher. Verapamil was obtained from Fluorochem. FBS was obtained from Sigma. Echo Qualified 384-well low-dead-volume microplate and Echo Qualified 384-well polypropylene microplate were purchased from Labcyte, and the Microclear black sterile polystyrene microplate from Greiner Bio-One.
Method: Intracellular inhibition of ALDH1A3 was assessed using the ALDEFLUOR™ Assay kit. The activated ALDEFLUOR™ reagent, BODIPY-aminoacetaldehyde (BAAA), is a fluorescent non-toxic substrate for ALDH enzymes, which freely diffuses into intact and viable cells. In the presence of ALDH enzyme activity, BAAA is converted into BODIPY-aminoacetate (BAA), which is retained inside the cells. The amount of fluorescent reaction product is proportional to the ALDH activity in the cells and is measured using an imaging cytometer. Active efflux of the reaction product is inhibited by an efflux inhibitor (Verapamil) in the ALDEFLUOR™ Assay Buffer.
A frozen vial of cells was recovered into a T225 flask containing DMEM, high glucose, 10% FBS, 1% glutamax, 1% HEPES. The following day, media was changed and cells were ready for assay from 72 hours after recovery. Cells were transferred into FluoroBrite DMEM (plus 10% FBS, 1% glutamax and 1% HEPES) and diluted to 2.5×10^5 cells/mL. 30 μL of cells were added to each well to give 7500 cells/well and then incubated overnight at 37° C., 5% CO2. After overnight incubation, the media was aspirated and replaced by 20 μL substrate/Hoechst buffer solution. Each plate requires 9 mL of solution comprising, 9 mL ALDEFLUOR assay buffer, 18 μL BAAA substrate (final concentration 500 nM), 4.5 μL Hoechst 33342 (final concentration 5 μg/mL) and 4.5 μL Verapamil (final concentration 50 μM). Compounds were prepared for dosing using the Echo acoustic dispenser by aliquoting into a source plate and dosed directly onto the cell assay plate to give a 10 point dose response per compound ranging from 10 μM to 0.0005 μM final concentration in 3-fold dilution steps. Plates were then incubated for 60 minutes at 37° C., 5% CO2. The buffer was then aspirated and cells washed twice in ice-cold PBS. Plates were kept on ice and 30 μL of cold Aldefluor buffer with 50 μM verapamil dispensed per well. The plates were then imaged using the CellInsight fluorescent microscope. Hoechst fluorescence in the 405 nm channel indicated the nuclear area and this was used to define nuclei and then the surrounding cellular area. Fluorescence in the 488 nm channel of the defined cellular area indicates ALDH1A3 activity. The percentage of cells positive for ALDH activity was plotted versus compound concentration to generate EC50 values using curve fitting parameters defined in Dotmatics software.

Structure (SMILES) | IC50
O=C1CCc2cc(OCCN3CCCC3c3ccsc3)ccc2N1 (centres unmarked) [ALDHI-2014, 6-[2-[2-(3-thienyl)pyrrolidin-1-yl]ethoxy]-3,4-dihydro-1H-quinolin-2-one] | 0.1 to 1 µM
CC1Cc2cc(OCCN3CCCC3c3cccc(F)c3)ccc2NC1=O (centres unmarked) [ALDHI-2048, 6-[2-[2-(3-fluorophenyl)pyrrolidin-1-yl]ethoxy]-3-methyl-3,4-dihydro-1H-quinolin-2-one] | < 0.1 µM
O=C1CCc2cc(OCCN3CCCC3c3cccs3)ccc2N1 (centres unmarked) [ALDHI-2013, 6-[2-[2-(2-thienyl)pyrrolidin-1-yl]ethoxy]-3,4-dihydro-1H-quinolin-2-one] | 0.1 to 1 µM
CC1CN(CCOc2ccc3c(c2)CCC(=O)N3)C(c2ccccc2)CO1 (mixture of isomers) [ALDHI-2042, 6-[2-(2-methyl-5-phenyl-morpholin-4-yl)ethoxy]-3,4-dihydro-1H-quinolin-2-one] | 0.1 to 1 µM
O=C1CCc2cc(OCCN3CC(O)CC3c3cccc(F)c3)ccc2N1 (mixture of isomers) [ALDHI-2035, 6-[2-[2-(3-fluorophenyl)-4-hydroxy-pyrrolidin-1-yl]ethoxy]-3,4-dihydro-1H-quinolin-2-one] | < 0.1 µM
Cn1cc(C2CCCN2CCOc2ccc3c(c2)SCC(=O)N3)cn1 (centres unmarked) [ALDHI-2026, 7-[2-[2-(1-methylpyrazol-4-yl)pyrrolidin-1-yl]ethoxy]-4H-1,4-benzothiazin-3-one] | 1 to 10 µM
O=C1CCc2cc(OCCN3CCC3c3cccc(F)c3)ccc2N1 (centres unmarked) [ALDHI-2021, 6-[2-[2-(3-fluorophenyl)azetidin-1-yl]ethoxy]-3,4-dihydro-1H-quinolin-2-one] | 1 to 10 µM
O=C1CCc2cc(OCCN3CCCC3c3cccnc3)ccc2N1 (centres unmarked) [ALDHI-2005, 6-[2-[2-(3-pyridyl)pyrrolidin-1-yl]ethoxy]-3,4-dihydro-1H-quinolin-2-one] | 0.1 to 1 µM
O=C1CCc2cc(OCCN3CCC[C@H]3c3cccc(F)c3)ccc2N1 [ALDHI-2018, 6-[2-[(2S)-2-(3-fluorophenyl)pyrrolidin-1-yl]ethoxy]-3,4-dihydro-1H-quinolin-2-one] | < 0.1 µM
C[C@@H](c1ccccc1)N(CCO)CCOc1ccc2c(c1)CCC(=O)N2 [ALDHI-3007, 6-[2-[2-hydroxyethyl-[(1S)-1-phenylethyl]amino]ethoxy]-3,4-dihydro-1H-quinolin-2-one] | 0.1 to 1 µM
O=C1COc2cc(OCCN3CCCC3c3cccc(F)c3)ccc2N1 (centres unmarked) [ALDHI-2009, 7-[2-[2-(3-fluorophenyl)pyrrolidin-1-yl]ethoxy]-4H-1,4-benzoxazin-3-one] | 0.1 to 1 µM
CC1(c2cccc(F)c2)CCCN1CCOc1ccc2c(c1)CCC(=O)N2 (centres unmarked) [ALDHI-2037, 6-[2-[2-(3-fluorophenyl)-2-methyl-pyrrolidin-1-yl]ethoxy]-3,4-dihydro-1H-quinolin-2-one] | < 0.1 µM
O=C1CSc2cc(OCCN3CCCC3c3cccc(F)c3)ccc2N1 (centres unmarked) [ALDHI-2008, 7-[2-[2-(3-fluorophenyl)pyrrolidin-1-yl]ethoxy]-4H-1,4-benzothiazin-3-one] | < 0.1 µM
O=C1CCc2cc(OCCN3CCCC3c3ccc(F)cc3)ccc2N1 (centres unmarked) [ALDHI-2003, 6-[2-[2-(4-fluorophenyl)pyrrolidin-1-yl]ethoxy]-3,4-dihydro-1H-quinolin-2-one] | 1 to 10 µM
O=C1CCc2cc(OCCN3CCCC3c3cccc(F)c3)ccc2N1 (centres unmarked) [ALDHI-2001, 6-[2-[2-(3-fluorophenyl)pyrrolidin-1-yl]ethoxy]-3,4-dihydro-1H-quinolin-2-one] | < 0.1 µM
O=C1CCCc2cc(OCCN3CCCC3c3cccc(F)c3)ccc2N1 (centres unmarked) [ALDHI-2020, 7-[2-[2-(3-fluorophenyl)pyrrolidin-1-yl]ethoxy]-1,3,4,5-tetrahydro-1-benzazepin-2-one] | 0.1 to 1 µM

Structure (SMILES) | IC50
Cc1ccc(C2CCCN2CCOc2ccc3c(c2)CCC(=O)N3)cn1 (centres unmarked) [ALDHI-2030, 6-[2-[2-(6-methyl-3-pyridyl)pyrrolidin-1-yl]ethoxy]-3,4-dihydro-1H-quinolin-2-one] | 0.1 to 1 µM
O=C1CCc2cc(NC(=O)c3scnc3-c3ccccc3F)ccc2N1 [ALDHI-1021, 4-(2-fluorophenyl)-N-(2-oxo-3,4-dihydro-1H-quinolin-6-yl)thiazole-5-carboxamide] | < 0.1 µM
CC1(c2ccccc2)COCCN1CCOc1ccc2c(c1)CCC(=O)N2 (centres unmarked) [ALDHI-2040, 6-[2-(3-methyl-3-phenyl-morpholin-4-yl)ethoxy]-3,4-dihydro-1H-quinolin-2-one] | 0.1 to 1 µM
O=C1CCc2cc(NC(=O)c3sc(N4CCNCC4)nc3-c3cccc(F)c3)ccc2N1 [ALDHI-1005, 4-(3-fluorophenyl)-N-(2-oxo-3,4-dihydro-1H-quinolin-6-yl)-2-piperazin-1-yl-thiazole-5-carboxamide] | < 0.1 µM
O=C1CCc2cc(NC(=O)c3ncsc3-c3cccc(F)c3)ccc2N1 [ALDHI-1014, 5-(3-fluorophenyl)-N-(2-oxo-3,4-dihydro-1H-quinolin-6-yl)thiazole-4-carboxamide] | 1 to 10 µM
O=C1CCc2cc(OCCN3CCCCC3c3cccc(F)c3)ccc2N1 (centres unmarked) [ALDHI-2038, 6-[2-[2-(3-fluorophenyl)-1-piperidyl]ethoxy]-3,4-dihydro-1H-quinolin-2-one] | 1 to 10 µM
O=C1CCc2cc(OCCN3CCC[C@@H]3c3cccc(F)c3)ccc2N1 [ALDHI-2007, 6-[2-[(2R)-2-(3-fluorophenyl)pyrrolidin-1-yl]ethoxy]-3,4-dihydro-1H-quinolin-2-one] | < 0.1 µM
CN(CCOc1ccc2c(c1)CCC(=O)N2)C(CO)c1cccc(F)c1 (centres unmarked) [ALDHI-3003, 6-[2-[[1-(3-fluorophenyl)-2-hydroxy-ethyl]-methyl-amino]ethoxy]-3,4-dihydro-1H-quinolin-2-one] | 0.1 to 1 µM
O=C1CCc2cc(OCCN3CCCC3c3ccc(F)c(F)c3)ccc2N1 (centres unmarked) [ALDHI-2039, 6-[2-[2-(3,4-difluorophenyl)pyrrolidin-1-yl]ethoxy]-3,4-dihydro-1H-quinolin-2-one] | 0.1 to 1 µM
O=C1CCc2cc(OCCN3CCCC3c3ccccn3)ccc2N1 (centres unmarked) [ALDHI-2006, 6-[2-[2-(2-pyridyl)pyrrolidin-1-yl]ethoxy]-3,4-dihydro-1H-quinolin-2-one] | 1 to 10 µM
O=C1CCc2cc(OCCN3CCCC3c3cccc(F)c3)c(F)cc2N1 (centres unmarked) [ALDHI-2050, 7-fluoro-6-[2-[2-(3-fluorophenyl)pyrrolidin-1-yl]ethoxy]-3,4-dihydro-1H-quinolin-2-one] | 0.1 to 1 µM
O=C1CCc2cc(OCCN(CCO)Cc3cccc(F)c3)ccc2N1 [ALDHI-3002, 6-[2-[(3-fluorophenyl)methyl-(2-hydroxyethyl)amino]ethoxy]-3,4-dihydro-1H-quinolin-2-one] | < 0.1 µM
CCC1Oc2cc(OCCN3CCCC3c3cccc(F)c3)ccc2NC1=O (centres unmarked) [ALDHI-2045, 2-ethyl-7-[2-[2-(3-fluorophenyl)pyrrolidin-1-yl]ethoxy]-4H-1,4-benzoxazin-3-one] | < 0.1 µM
CN(C)c1nc(-c2cccc(F)c2)c(C(=O)Nc2ccc3c(c2)CCC(=O)N3)s1 [ALDHI-1002, 2-(dimethylamino)-4-(3-fluorophenyl)-N-(2-oxo-3,4-dihydro-1H-quinolin-6-yl)thiazole-5-carboxamide] | < 0.1 µM
Cc1nc(C2CCCN2CCOc2ccc3c(c2)CCC(=O)N3)cs1 (centres unmarked) [ALDHI-2033, 6-[2-[2-(2-methylthiazol-4-yl)pyrrolidin-1-yl]ethoxy]-3,4-dihydro-1H-quinolin-2-one] | 1 to 10 µM
O=c1ccc2cc(OCCN3CCCC3c3cccc(F)c3)ccc2[nH]1 (centres unmarked) [ALDHI-2022, 6-[2-[2-(3-fluorophenyl)pyrrolidin-1-yl]ethoxy]-1H-quinolin-2-one] | 0.1 to 1 µM
